# Results: publication PMC4979471 (Cell Death Discovery, 2015)
# Like-named read-outs stand apart in the source and are kept apart here.
# How the values were obtained:
# Experiment in all cases: Kinase selectivity, P33-radiolabeled assay
# Assay type in all cases: biochemical
# Settings in all cases: 10 μM ATP
# [1] = target: T1, DCAMKL1 (Homo sapiens, UniProt O15075)
# T1 construct: purchased Reaction Biology Corp
# T1 sequence (O15075 1-740): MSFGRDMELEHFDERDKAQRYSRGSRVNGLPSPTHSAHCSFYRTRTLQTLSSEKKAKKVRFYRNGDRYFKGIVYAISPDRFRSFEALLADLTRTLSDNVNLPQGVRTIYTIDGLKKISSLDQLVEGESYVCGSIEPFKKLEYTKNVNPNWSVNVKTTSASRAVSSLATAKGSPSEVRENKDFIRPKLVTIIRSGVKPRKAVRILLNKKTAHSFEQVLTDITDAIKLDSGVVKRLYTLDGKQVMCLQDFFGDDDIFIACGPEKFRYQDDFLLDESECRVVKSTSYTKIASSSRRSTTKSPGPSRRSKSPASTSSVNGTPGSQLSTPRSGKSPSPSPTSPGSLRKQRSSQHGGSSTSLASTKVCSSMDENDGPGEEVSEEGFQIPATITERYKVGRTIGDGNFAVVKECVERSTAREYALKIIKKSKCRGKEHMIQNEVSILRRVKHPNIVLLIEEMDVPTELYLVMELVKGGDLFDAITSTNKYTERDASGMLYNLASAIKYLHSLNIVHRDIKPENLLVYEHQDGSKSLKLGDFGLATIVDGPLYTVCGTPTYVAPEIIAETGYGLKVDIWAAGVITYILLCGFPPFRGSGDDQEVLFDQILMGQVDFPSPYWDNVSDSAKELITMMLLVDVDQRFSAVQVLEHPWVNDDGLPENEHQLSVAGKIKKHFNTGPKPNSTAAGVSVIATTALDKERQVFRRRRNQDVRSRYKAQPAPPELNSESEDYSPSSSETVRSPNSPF
# In short: (§1)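 Percent residual kinase activity versus DMSO is reported. Conditions: compound at 10 μM, ATP at 10 μM, n = 2.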
# [2] = target: T2, MLCK/MYLK (Homo sapiens, UniProt Q15746)
# T2 construct: purchased Reaction Biology Corp
# In short: as §1
# [3] = target: T3, NEK9 (Homo sapiens, UniProt Q8TD19)
# T3 construct: purchased Reaction Biology Corp
# T3 sequence (Q8TD19 1-979): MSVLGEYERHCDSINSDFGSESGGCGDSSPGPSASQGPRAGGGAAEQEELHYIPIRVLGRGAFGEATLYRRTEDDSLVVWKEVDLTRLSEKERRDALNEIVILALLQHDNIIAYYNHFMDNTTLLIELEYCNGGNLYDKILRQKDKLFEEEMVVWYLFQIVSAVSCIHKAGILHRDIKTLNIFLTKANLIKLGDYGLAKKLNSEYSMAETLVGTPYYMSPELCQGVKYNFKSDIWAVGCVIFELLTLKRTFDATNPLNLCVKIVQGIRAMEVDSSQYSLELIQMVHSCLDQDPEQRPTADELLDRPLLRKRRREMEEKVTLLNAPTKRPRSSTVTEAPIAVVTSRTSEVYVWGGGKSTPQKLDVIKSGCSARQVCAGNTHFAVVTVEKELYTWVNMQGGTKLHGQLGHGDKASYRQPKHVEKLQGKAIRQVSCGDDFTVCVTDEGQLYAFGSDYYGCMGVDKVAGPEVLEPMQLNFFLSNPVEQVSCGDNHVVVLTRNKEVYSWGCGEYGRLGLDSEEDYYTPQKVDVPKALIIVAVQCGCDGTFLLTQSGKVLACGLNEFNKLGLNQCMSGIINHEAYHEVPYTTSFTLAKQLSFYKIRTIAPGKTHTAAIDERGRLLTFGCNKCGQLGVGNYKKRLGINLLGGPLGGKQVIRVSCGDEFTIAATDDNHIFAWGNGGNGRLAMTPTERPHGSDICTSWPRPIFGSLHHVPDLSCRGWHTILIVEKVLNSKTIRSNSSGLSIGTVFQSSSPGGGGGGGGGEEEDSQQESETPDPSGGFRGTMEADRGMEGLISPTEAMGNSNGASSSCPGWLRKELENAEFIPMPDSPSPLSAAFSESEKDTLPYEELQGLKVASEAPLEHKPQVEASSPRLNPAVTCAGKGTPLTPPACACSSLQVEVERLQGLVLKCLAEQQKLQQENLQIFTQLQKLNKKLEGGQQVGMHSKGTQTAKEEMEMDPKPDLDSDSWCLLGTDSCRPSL
# In short: as §1
# [4] = target: T4, PKN3/PRK3 (Homo sapiens, UniProt Q6P5Z2)
# T4 construct: purchased Reaction Biology Corp
# In short: as §1
# [5] = target: T5, TESK1 (Homo sapiens, UniProt Q15569)
# T5 construct: purchased Reaction Biology Corp
# In short: as §1
# [6] = read-out: % Enzyme Activity (relative to DMSO controls) AVG
# [7] = read-out: % Enzyme Activity (relative to DMSO controls) Data 1
# [8] = read-out: % Enzyme Activity (relative to DMSO controls) Data 2
# T5 sequence (Q15569 whole entry): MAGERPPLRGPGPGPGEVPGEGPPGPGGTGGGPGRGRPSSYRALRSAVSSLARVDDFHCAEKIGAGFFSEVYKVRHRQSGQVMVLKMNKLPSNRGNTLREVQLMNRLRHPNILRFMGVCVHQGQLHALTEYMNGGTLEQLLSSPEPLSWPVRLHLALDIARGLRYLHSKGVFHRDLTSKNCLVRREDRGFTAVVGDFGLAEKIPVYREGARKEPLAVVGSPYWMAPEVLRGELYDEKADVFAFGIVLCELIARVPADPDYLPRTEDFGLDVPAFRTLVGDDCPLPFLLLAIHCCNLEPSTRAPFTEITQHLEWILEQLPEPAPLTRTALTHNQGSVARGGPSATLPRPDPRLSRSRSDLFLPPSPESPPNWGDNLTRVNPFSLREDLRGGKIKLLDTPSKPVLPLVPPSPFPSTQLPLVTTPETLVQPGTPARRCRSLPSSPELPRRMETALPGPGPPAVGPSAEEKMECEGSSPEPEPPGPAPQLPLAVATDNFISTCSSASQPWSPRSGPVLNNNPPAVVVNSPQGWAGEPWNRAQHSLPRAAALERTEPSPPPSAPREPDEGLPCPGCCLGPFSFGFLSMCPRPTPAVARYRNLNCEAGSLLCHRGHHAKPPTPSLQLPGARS
# T4 sequence (Q6P5Z2 whole entry): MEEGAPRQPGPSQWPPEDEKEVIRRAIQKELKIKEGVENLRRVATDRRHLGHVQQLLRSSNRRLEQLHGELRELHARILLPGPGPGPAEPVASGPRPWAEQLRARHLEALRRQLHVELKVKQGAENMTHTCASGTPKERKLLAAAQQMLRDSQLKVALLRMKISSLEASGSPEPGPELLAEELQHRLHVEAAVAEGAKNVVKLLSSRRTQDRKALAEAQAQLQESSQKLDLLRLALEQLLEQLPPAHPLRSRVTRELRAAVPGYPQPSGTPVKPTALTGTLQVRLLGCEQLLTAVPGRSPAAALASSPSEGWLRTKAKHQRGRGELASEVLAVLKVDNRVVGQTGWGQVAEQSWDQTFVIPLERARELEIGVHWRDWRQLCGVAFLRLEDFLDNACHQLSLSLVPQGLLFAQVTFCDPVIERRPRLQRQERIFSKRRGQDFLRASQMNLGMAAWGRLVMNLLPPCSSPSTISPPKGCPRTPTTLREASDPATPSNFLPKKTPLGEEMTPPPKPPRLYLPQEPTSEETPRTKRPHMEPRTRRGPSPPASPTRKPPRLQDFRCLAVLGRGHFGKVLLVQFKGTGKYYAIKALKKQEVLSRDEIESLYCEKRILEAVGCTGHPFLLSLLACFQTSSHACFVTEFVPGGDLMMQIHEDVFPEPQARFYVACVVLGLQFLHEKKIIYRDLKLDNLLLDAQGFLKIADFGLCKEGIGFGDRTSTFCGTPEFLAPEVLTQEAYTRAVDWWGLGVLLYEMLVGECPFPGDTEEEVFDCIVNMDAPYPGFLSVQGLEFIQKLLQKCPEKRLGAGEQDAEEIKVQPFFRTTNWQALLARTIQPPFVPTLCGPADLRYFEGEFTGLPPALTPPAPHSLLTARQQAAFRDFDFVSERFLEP
smiles,measurement,setting,value
CC(C)(C)C(=O)N1N=CC[C@H]1c1ccccc1 [GSK′963],remaining activity at 10 µM,[1]; [6],92.5%
same,remaining activity at 10 µM,[1]; [7],96.2%
same,remaining activity at 10 µM,[1]; [8],88.8%
same,remaining activity at 10 µM,[2]; [6],96.1%
same,remaining activity at 10 µM,[2]; [7],97.1%
same,remaining activity at 10 µM,[2]; [8],95.2%
same,remaining activity at 10 µM,[3]; [6],92.8%
same,remaining activity at 10 µM,[3]; [7],92.1%
same,remaining activity at 10 µM,[3]; [8],93.5%
same,remaining activity at 10 µM,[4]; [6],94%
same,remaining activity at 10 µM,[4]; [7],92.9%
same,remaining activity at 10 µM,[4]; [8],95.1%
same,remaining activity at 10 µM,[5]; [6],116%
same,remaining activity at 10 µM,[5]; [7],112%
same,remaining activity at 10 µM,[5]; [8],120%
